The values that follow come from ChEMBL document CHEMBL1136303, “4-(2-pyridyl)piperazine-1-carboxamides: potent vanilloid receptor 1 antagonists” (Bioorg Med Chem Lett, 2003).

Data set [1] concerns the target T1, Transient receptor potential cation channel subfamily V member 1 (Rattus norvegicus, UniProt O35433). The data set is described as follows: Vanilloid receptor subtype 1 antagonist activity based on its ability to block capsaicin-induced (CAP) activation of the rat VR1 channel in a HEK293 cell line. The class given is functional.
Data set [2] deals with T1, Transient receptor potential cation channel subfamily V member 1. The data set is described as follows: Vanilloid receptor subtype 1 antagonist activity based on its ability to block low pH-induced activation of the rat VR1 channel in a HEK293 cell line. In kind it is functional.
Data set [3] is described as follows: Cmax in rat by po administration at a dose of 40 mg/kg. Particulars: in vivo. Also noted: dose 40 mg/kg, route oral. In kind it is ADME, organism-based.
The nature of data set [4]: Tmax in rat by po administration at a dose of 40 mg/kg. The class given is ADME, organism-based. Also on record: dose 40 mg/kg, route oral. Particulars: in vivo.
Data set [5] is described as follows: Pharmacokinetic (PK) parameter Vz in rat. The class given is ADME, organism-based. To be noted: in vivo, read-out: Vz.
Data set [6] in a line: Plasma clearance in rat by iv administration at a dose of 3 mg/kg. The class given is ADME, organism-based. Also on record: dose 3 mg/kg, route intravenous.
Data set [7] can be described thus: Oral bioavailability in rat by po administration at a dose of 40 mg/kg. To be noted: in vivo. In kind it is ADME, organism-based.
Data set [8] can be described thus: Half life period in rat by iv administration at a dose of 3 mg/kg. In kind it is ADME, organism-based. To be noted: in vivo. Also on record: dose 3 mg/kg, route intravenous.

A value given as a limit tells only on which side of the number the result lay.

For orientation: IC50 means the concentration at which inhibition is half-maximal. Broadly, the Cmax is the highest concentration seen after dosing. In general, Tmax refers to the time from dosing to the highest level. Broadly, the clearance is the volume of plasma or blood freed of the substance per unit of time. Usually bioavailability stands for the share of a dose that reaches the circulation, judged against a reference dose that is usually intravenous. Read a high bioavailability as good availability. As usually defined, the half-life is the time needed for the level to fall by half in the phase considered. Lower therefore signals fast loss.

T1 sequence (O35433 whole entry): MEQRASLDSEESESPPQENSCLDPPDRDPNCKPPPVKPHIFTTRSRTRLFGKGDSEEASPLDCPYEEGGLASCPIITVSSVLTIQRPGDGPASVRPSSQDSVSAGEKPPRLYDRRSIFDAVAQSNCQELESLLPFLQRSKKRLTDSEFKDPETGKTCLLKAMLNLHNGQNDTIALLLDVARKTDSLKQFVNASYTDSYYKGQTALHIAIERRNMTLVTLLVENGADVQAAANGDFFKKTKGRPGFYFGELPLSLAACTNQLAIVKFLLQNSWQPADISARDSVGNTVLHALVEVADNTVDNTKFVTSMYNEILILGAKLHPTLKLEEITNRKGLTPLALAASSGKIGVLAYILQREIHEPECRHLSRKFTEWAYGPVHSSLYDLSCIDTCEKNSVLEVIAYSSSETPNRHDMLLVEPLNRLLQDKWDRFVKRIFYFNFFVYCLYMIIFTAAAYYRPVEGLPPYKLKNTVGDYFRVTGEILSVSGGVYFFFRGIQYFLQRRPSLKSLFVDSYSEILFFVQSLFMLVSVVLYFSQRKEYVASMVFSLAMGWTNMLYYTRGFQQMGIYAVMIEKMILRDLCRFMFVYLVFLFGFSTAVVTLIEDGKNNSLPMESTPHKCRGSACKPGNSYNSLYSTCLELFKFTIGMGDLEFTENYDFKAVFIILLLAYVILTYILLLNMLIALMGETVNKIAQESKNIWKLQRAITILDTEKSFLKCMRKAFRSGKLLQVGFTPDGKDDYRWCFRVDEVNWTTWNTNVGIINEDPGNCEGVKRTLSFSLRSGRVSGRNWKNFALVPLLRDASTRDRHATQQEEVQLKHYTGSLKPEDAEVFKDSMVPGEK

`CCc1ccc(NC(=O)N2CCN(c3ncccc3C(F)(F)F)CC2)cc1`: the IC50 was determined as 111 nM in data set [1] and 121 nM in data set [2].
In the same order, the values of `CC(C)c1ccc(NC(=O)N2CCN(c3ncccc3C(F)F)CC2)cc1` are 27.7 nM and 61.5 nM.
In the same order, the values of `Cc1cccnc1N1CCN(C(=O)Nc2ccc(C(C)C)cc2)CC1` are 25.3 nM and 173 nM.
In the same order, the values of `CC(C)c1ccc(NC(=O)N2CCN(c3ncccc3C=O)CC2)cc1` are 201 nM and 1400 nM.
On to `O=C(Nc1ccc(C(F)(F)F)cc1)N1CCN(c2ncccc2Cl)CC1`, for which the IC50 in data set [1] is 63.5 nM; in data set [2], 81.4 nM.
In the same order, the values of `CCc1cccnc1N1CCN(C(=O)Nc2ccc(C(C)C)cc2)CC1` are 230 nM and 828 nM.
The matching figures for `CCC(C)c1ccc(NC(=O)N2CCN(c3ncccc3Cl)CC2)cc1` (stereo not drawn): 17.4 nM and 23.3 nM.
In the same order, the values of `O=C(Nc1ccc(C2CCCCC2)cc1)N1CCN(c2ncccc2Cl)CC1` are 29.8 nM and 91.7 nM.
With `CC(C)c1ccc(NC(=O)N2CCN(c3ncccc3I)CC2)cc1`, the values for the concentration for half-maximal inhibition (IC50) in data set [1] and in data set [2] were 56.7 nM and 77.4 nM, respectively.
With `CC(C)c1ccc(NC(=O)N2CCN(c3ncccc3[N+](=O)[O-])CC2)cc1`, the values for the 50% inhibitory concentration (IC50) in data set [1] and in data set [2] were 190 nM and 245 nM, respectively.
In the same order, the values of `O=C(Nc1ccc(OC(F)(F)F)cc1)N1CCN(c2ncccc2Cl)CC1` are 93.2 nM and 261 nM.
As for `O=C(Nc1ccc2ccccc2c1)N1CCN(c2ncccc2Cl)CC1`, the 50% inhibitory concentration (IC50) was 479 nM in data set [1] and 278 nM in data set [2].
The matching figures for `CCCCc1ccc(NC(=O)N2CCN(c3ncccc3Cl)CC2)cc1`: 117 nM and 203 nM.
Regarding `CC(C)c1ccc(NC(=O)N2CCN(c3ncccc3Cl)CC2)cc1`, inhibition in data set [1] was half-maximal at 11.5 nM (IC50).
Consider `CC(C)c1ccc(NC(=O)N2CCN(c3ncccc3C#N)CC2)cc1`, for which the 50% inhibitory concentration (IC50) in data set [1] was 287 nM; in data set [2] it was greater than 25000 nM.
In the same order, the values of `O=C(Nc1ccc(I)cc1)N1CCN(c2ncccc2Cl)CC1` are 285 nM and 310 nM.
With `CC(C)(C)[C@H]1CC[C@H](NC(=O)N2CCN(c3ncccc3Cl)CC2)CC1`, the IC50 stood at 3.9 nM in data set [1] and 17.2 nM in data set [2].
Turning to `Cc1ccc(NC(=O)N2CCN(c3ncccc3C(F)(F)F)CC2)cc1`, inhibition in data set [1] was half-maximal at 556 nM (IC50).
For the compound `CC(C)c1ccc(NC(=S)N2CCN(c3ncccc3C(F)(F)F)CC2)cc1`, the results for the IC50 in data set [1] and in data set [2] were 872 nM and 575 nM, respectively.
The matching figures for `CC(C)(C)c1ccc(NC(=S)N2CCN(c3ncccc3C(F)(F)F)CC2)cc1`: 246 nM and 441 nM.
In the same order, the values of `O=C(Nc1ccc(Br)cc1)N1CCN(c2ncccc2Cl)CC1` are 491 nM and 1010 nM.
`O=C(Nc1ccc(Cl)cc1)N1CCN(c2ncccc2Cl)CC1` showed an IC50 in data set [1] of 655 nM. This lies in the sub-micromolar range.
Take `CC(C)(C)c1ccc(NC(=O)N2CCN(c3ncccc3C(F)(F)F)CC2)cc1`: the concentration for half-maximal inhibition (IC50) came to 11.3 nM in data set [1] and 57.7 nM in data set [2].
As for `CCCCc1ccc(NC(=O)N2CCN(c3ncccc3C(F)(F)F)CC2)cc1`, the values for the half-inhibitory concentration (IC50) in data set [1] and in data set [2] were 1360 nM and 5180 nM, respectively.
The matching figures for `CC(C)c1ccc(NC(=O)N2CCN(c3ncccc3Br)CC2)cc1`: 4.6 nM and 27.1 nM.
In the same order, the values of `CCc1ccc(NC(=O)N2CCN(c3ncccc3Cl)CC2)cc1` are 107 nM and 56.6 nM.
In the same order, the values of `O=C(Nc1ccc([N+](=O)[O-])cc1)N1CCN(c2ncccc2Cl)CC1` are 1110 nM and greater than 25000 nM.
In data set [1], `CC(C)c1ccc(NC(=O)N2CCN(c3ncccc3C(F)(F)F)CC2)cc1` showed a half-maximal inhibitory concentration (IC50) of 57.5 nM.
`O=C(Nc1ccc(Oc2ccccc2)cc1)N1CCN(c2ncccc2C(F)(F)F)CC1`: the IC50 in data set [1] was 258 nM; in data set [2], 916 nM.
For `CC(C)(C)c1ccc(NC(=O)N2CCN(c3ncccc3Cl)CC2)cc1`, the highest level in data set [3] (Cmax) was 1120 ng/mL. Further, in data set [4], the Tmax came out at 30 min. For the same compound, in data set [5], the Vd was found to be 5.8 L/kg. In addition, in data set [6], the clearance is 76.7 mL/min/kg. The compound further showed a bioavailability in data set [7] of 15.1%. The half-life in data set [8] was 54 min.
`CCCc1ccc(NC(=O)N2CCN(c3ncccc3Cl)CC2)cc1`: the results for the IC50 in data set [1] and in data set [2] were 41.6 nM and 73 nM, respectively.
In the case of `Oc1cc2c(cc1O)CN(C(=S)NCCc1ccc(Cl)cc1)CCC2` [CAPSAZEPINE], the half-maximal inhibitory concentration (IC50) in data set [1] stood at 58 nM.
